From patent publication US20250296959A1, “B7-H3 TARGETING PEPTIDES AND CONSTRUCTS THEREOF” (Mariana Oncology Inc., priority 2024, published 2025)
Starred links: 1 amine or outer side, 2 acyl side, 3 side chain; linkers in the order of their positions; H or OH if unused. Positions of bridges follow the written chain, without caps; N, C: chain ends. Non-standard residues stand in square brackets, D forms with d. Residues, ends and D or L forms follow the SMILES beside them. *: point of attachment. X16 = O=C(O)CCOCCOCCOCCOCCOCCOCCOCCOCCOCCOCCOCCOCCOCCOCCOCCOCCOCCOCCOCCOCCOCCC(=O)*; Ala(1-CH2CO2H-4-piperidyl) = N[C@@H](CC1CCN(CC(=O)O)CC1)C(=O)O; Ala(piperidin-4-yl) = O=C([C@H](CC1CCN([*:3])CC1)N[*:1])[*:2]; DOTA = O=C(O)CN1CCN(CC(=O)O)CCN(CC(=O)*)CCN(CC(=O)O)CC1; Trp(5-F) = N[C@@H](Cc1c[nH]c2ccc(F)cc12)C(=O)O; 1Nal = N[C@@H](Cc1cccc2ccccc12)C(=O)O; Ala(4-THP) = N[C@@H](CC1CCOCC1)C(=O)O; Val(3-OH) = CC(C)(O)[C@H](N)C(=O)O; 4Pal = N[C@@H](Cc1ccncc1)C(=O)O; Tle = CC(C)(C)[C@H](N)C(=O)O; hLeu = CC(C)CC[C@H](N)C(=O)O; Nle = CCCC[C@H](N)C(=O)O; CH2 = C([*:1])[*:2]

Target: T1, human 4lg B7-H3 (Homo sapiens, UniProt Q5ZPR3)
T1 sequence (Q5ZPR3 29-534): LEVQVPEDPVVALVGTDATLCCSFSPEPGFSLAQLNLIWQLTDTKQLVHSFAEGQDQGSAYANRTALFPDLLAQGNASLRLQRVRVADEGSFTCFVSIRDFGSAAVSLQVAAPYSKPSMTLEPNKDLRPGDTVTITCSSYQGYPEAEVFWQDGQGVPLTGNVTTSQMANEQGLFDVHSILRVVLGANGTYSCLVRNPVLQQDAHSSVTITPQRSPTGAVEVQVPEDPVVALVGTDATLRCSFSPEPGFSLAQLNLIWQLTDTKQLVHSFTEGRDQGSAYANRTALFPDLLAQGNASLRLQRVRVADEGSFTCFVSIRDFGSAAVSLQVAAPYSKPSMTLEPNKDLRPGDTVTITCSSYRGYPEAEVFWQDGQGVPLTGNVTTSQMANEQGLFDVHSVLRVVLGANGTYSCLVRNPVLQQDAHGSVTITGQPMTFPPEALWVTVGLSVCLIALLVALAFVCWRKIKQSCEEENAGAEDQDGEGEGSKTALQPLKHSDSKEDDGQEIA
Test: Affinity determination by surface plasmon resonance (SPR) to 4Ig B7-H3
Conditions: 4Ig B7-H3

[1] = SPR KD—25° C., 25° C. flow cell temperature
[2] = SPR KD—37° C., 37° C. flow cell temperature

Kd [1] | Kd [2] | Compound
 | 1 to 10 nM | CC(=O)N[C@@H](CCC(C)C)C(=O)N[C@@H](Cc1ccc(O)cc1)C(=O)N[C@H]1CSSC[C@@H](C(=O)N[C@@H](Cc2c[nH]c3ccc(F)cc23)C(=O)N[C@@H](Cc2ccccc2)C(=O)N[C@H](C(=O)N[C@H](CCCCN)C(N)=O)C(C)(C)O)NC(=O)[C@H](Cc2ccc(O)cc2)NC(=O)[C@H](C(C)C)NC(=O)[C@H](CC(=O)O)NC(=O)[C@H](CC2CCOCC2)NC(=O)[C@H](CCCCNC(=O)CN2CCN(CC(=O)O)CCN(CC(=O)O)CCN(CC(=O)O)CC2)NC(=O)CNC(=O)[C@H](C(C)(C)C)NC1=O [compound 337, Ac-hLeu-Y-C-Tbg-G-Lys(DOTA)-ThpA-D-V-Y-C-5FW-F-hydroxyVal-dLys-CONH2] (Ac-[hLeu]YC[Tle]GK(DOTA)[Ala(4-THP)]DVYC[Trp(5-F)]F[Val(3-OH)][dK]-NH2; disulfide 3-11)
 | 10 to 100 nM | CC(=O)N[C@@H](CCC(C)C)C(=O)N[C@@H](Cc1ccc(O)cc1)C(=O)N[C@H]1CSSC[C@@H](C(=O)N[C@@H](Cc2c[nH]c3ccc(F)cc23)C(=O)N[C@@H](Cc2ccccc2)C(=O)N[C@H](C(=O)O)C(C)(C)O)NC(=O)[C@H](Cc2ccc(O)cc2)NC(=O)[C@H](C(C)C)NC(=O)[C@H](CC(=O)O)NC(=O)[C@H](CC2CCOCC2)NC(=O)[C@H](CC2CCN(C(=O)CN3CCN(CC(=O)O)CCN(CC(=O)O)CCN(CC(=O)O)CC3)CC2)NC(=O)CNC(=O)[C@H](C(C)(C)C)NC1=O [compound 342, Ac-hLeu-Y-C-Tbg-G-Pip(DOTA)Ala-ThpA-D-V-Y-C-5FW-F-hydroxyVal-COOH] (Ac-[hLeu]YC[Tle]G[Ala(piperidin-4-yl)](DOTA)[Ala(4-THP)]DVYC[Trp(5-F)]F[Val(3-OH)]-OH; disulfide 3-11)
 | 10 to 100 nM | CC(=O)N[C@@H](CCC(C)C)C(=O)N[C@@H](Cc1ccc(O)cc1)C(=O)N[C@H]1CSSC[C@@H](C(=O)N[C@@H](Cc2c[nH]c3ccc(F)cc23)C(=O)N[C@@H](Cc2ccccc2)C(=O)N[C@H](C(=O)O)C(C)(C)O)NC(=O)[C@H](Cc2ccc(O)cc2)NC(=O)[C@H](C(C)C)NC(=O)[C@H](CC(=O)O)NC(=O)[C@H](CC2CCN(CC(=O)O)CC2)NC(=O)[C@H](CCCCNC(=O)CN2CCN(CC(=O)O)CCN(CC(=O)O)CCN(CC(=O)O)CC2)NC(=O)CNC(=O)[C@H](C(C)(C)C)NC1=O [compound 343, Ac-hLeu-Y-C-Tbg-G-Lys(DOTA)-Pip(CH2COOH)Ala-D-V-Y-C-5FW-F-hydroxyVal-COOH] (Ac-[hLeu]YC[Tle]GK(DOTA)[Ala(1-CH2CO2H-4-piperidyl)]DVYC[Trp(5-F)]F[Val(3-OH)]-OH; disulfide 3-11)

Second part, the compound before the results:

Compound | Kd [1] | Kd [2]
CC(=O)N[C@@H](CCC(C)C)C(=O)N[C@@H](Cc1ccc(O)cc1)C(=O)N[C@H]1CSCSC[C@@H](C(=O)N[C@@H](Cc2cccc3ccccc23)C(=O)N[C@@H](Cc2ccccc2)C(=O)N2CCC[C@H]2C(N)=O)NC(=O)[C@H](Cc2ccc(O)cc2)NC(=O)[C@H](C(C)C)NC(=O)[C@H](CC(=O)O)NC(=O)[C@H](Cc2ccncc2)NC(=O)[C@H](CCCCNC(=O)CN2CCN(CC(=O)O)CCN(CC(=O)O)CCN(CC(=O)O)CC2)NC(=O)CNC(=O)[C@H](C(C)(C)C)NC1=O [compound 330, Ac-hLeu-Y-C(CH2)-Tbg-G-Lys(DOTA)-4PyA-D-V-Y-C-1Nal-F-Pro-CONH2] (Ac-[hLeu]YC[Tle]GK(DOTA)[4Pal]DVYC[1Nal]FP-NH2; linker 3-11 via CH2) | 100 to 300 nM | 
CC(=O)N[C@@H](CCC(C)C)C(=O)N[C@@H](Cc1ccc(O)cc1)C(=O)N[C@H]1CSSC[C@@H](C(=O)N[C@@H](Cc2c[nH]c3ccc(F)cc23)C(=O)N[C@@H](Cc2ccccc2)C(=O)N[C@H](C(=O)N[C@H](CCCCNC(=O)CN2CCN(CC(=O)O)CCN(CC(=O)O)CCN(CC(=O)O)CC2)C(=O)O)[C@@H](C)O)NC(=O)[C@H](Cc2ccc(O)cc2)NC(=O)[C@H](C(C)C)NC(=O)[C@H](CC(=O)O)NC(=O)[C@H](CC2CCOCC2)NC(=O)[C@H](CCCCN)NC(=O)CNC(=O)[C@H](C(C)C)NC1=O [compound 331, Ac-hLeu-Y-C-V-G-K-ThpA-D-V-Y-C-5FW-F-Thr-dLys(DOTA)-COOH] (Ac-[hLeu]YCVGK[Ala(4-THP)]DVYC[Trp(5-F)]FT[dK](DOTA)-OH; disulfide 3-11) | < 1 nM | 
CC(=O)N[C@@H](CCC(C)C)C(=O)N[C@@H](Cc1ccc(O)cc1)C(=O)N[C@H]1CSSC[C@@H](C(=O)N[C@@H](Cc2c[nH]c3ccc(F)cc23)C(=O)N[C@@H](Cc2ccccc2)C(=O)N[C@H](C(=O)N[C@H](CCCCNC(=O)CN2CCN(CC(=O)O)CCN(CC(=O)O)CCN(CC(=O)O)CC2)C(=O)O)[C@@H](C)O)NC(=O)[C@H](Cc2ccc(O)cc2)NC(=O)[C@H](C(C)C)NC(=O)[C@H](CC(=O)O)NC(=O)[C@H](CC2CCOCC2)NC(=O)[C@H](CCCCN)NC(=O)CNC(=O)[C@H](C(C)(C)C)NC1=O [compound 332, Ac-hLeu-Y-C-Tbg-G-K-ThpA-D-V-Y-C-5FW-F-Thr-dLys(DOTA)-COOH] (Ac-[hLeu]YC[Tle]GK[Ala(4-THP)]DVYC[Trp(5-F)]FT[dK](DOTA)-OH; disulfide 3-11) | < 1 nM | 
CCCC[C@H](NC(=O)[C@H](Cc1c[nH]c2ccc(F)cc12)NC(=O)[C@@H]1CSSC[C@H](NC(=O)[C@H](Cc2ccc(O)cc2)NC(=O)[C@H](CCC(C)C)NC(C)=O)C(=O)N[C@@H](C(C)(C)C)C(=O)NCC(=O)N[C@@H](CCCCN)C(=O)N[C@@H](CC2CCOCC2)C(=O)N[C@@H](CC(=O)O)C(=O)N[C@@H](C(C)C)C(=O)N[C@@H](Cc2ccc(O)cc2)C(=O)N1)C(=O)N[C@H](C(=O)N[C@H](CCCCNC(=O)CN1CCN(CC(=O)O)CCN(CC(=O)O)CCN(CC(=O)O)CC1)C(=O)O)[C@@H](C)O [compound 333, Ac-hLeu-Y-C-Tbg-G-K-ThpA-D-V-Y-C-5FW-Nle-Thr-dLys(DOTA)-COOH] (Ac-[hLeu]YC[Tle]GK[Ala(4-THP)]DVYC[Trp(5-F)][Nle]T[dK](DOTA)-OH; disulfide 3-11) | 10 to 100 nM | 
CC(=O)N[C@@H](CCC(C)C)C(=O)N[C@@H](Cc1ccc(O)cc1)C(=O)N[C@H]1CSSC[C@@H](C(=O)N[C@@H](Cc2c[nH]c3ccc(F)cc23)C(=O)N[C@@H](CC(C)C)C(=O)N[C@H](C(=O)N[C@H](CCCCNC(=O)CN2CCN(CC(=O)O)CCN(CC(=O)O)CCN(CC(=O)O)CC2)C(=O)O)[C@@H](C)O)NC(=O)[C@H](Cc2ccc(O)cc2)NC(=O)[C@H](C(C)C)NC(=O)[C@H](CC(=O)O)NC(=O)[C@H](CC2CCOCC2)NC(=O)[C@H](CCCCN)NC(=O)CNC(=O)[C@H](C(C)(C)C)NC1=O [compound 334, Ac-hLeu-Y-C-Tbg-G-K-ThpA-D-V-Y-C-5FW-Leu-Thr-dLys(DOTA)-COOH] (Ac-[hLeu]YC[Tle]GK[Ala(4-THP)]DVYC[Trp(5-F)]LT[dK](DOTA)-OH; disulfide 3-11) | 10 to 100 nM | 
CC(=O)N[C@@H](CCC(C)C)C(=O)N[C@@H](Cc1ccc(O)cc1)C(=O)N[C@H]1CSSC[C@@H](C(=O)N[C@@H](Cc2c[nH]c3ccc(F)cc23)C(=O)N[C@H](C(=O)N[C@H](C(=O)N[C@H](CCCCNC(=O)CN2CCN(CC(=O)O)CCN(CC(=O)O)CCN(CC(=O)O)CC2)C(=O)O)[C@@H](C)O)C(C)(C)C)NC(=O)[C@H](Cc2ccc(O)cc2)NC(=O)[C@H](C(C)C)NC(=O)[C@H](CC(=O)O)NC(=O)[C@H](CC2CCOCC2)NC(=O)[C@H](CCCCN)NC(=O)CNC(=O)[C@H](C(C)(C)C)NC1=O [compound 335, Ac-hLeu-Y-C-Tbg-G-K-ThpA-D-V-Y-C-5FW-Tbg-Thr-dLys(DOTA)-COOH] (Ac-[hLeu]YC[Tle]GK[Ala(4-THP)]DVYC[Trp(5-F)][Tle]T[dK](DOTA)-OH; disulfide 3-11) | 1 to 10 nM | 
CCCC[C@H](NC(=O)[C@H](Cc1c[nH]c2ccc(F)cc12)NC(=O)[C@@H]1CSSC[C@H](NC(=O)[C@H](Cc2ccc(O)cc2)NC(=O)[C@H](CCC(C)C)NC(C)=O)C(=O)N[C@@H](C(C)(C)C)C(=O)NCC(=O)N[C@@H](CCCCNC(=O)CN2CCN(CC(=O)O)CCN(CC(=O)O)CCN(CC(=O)O)CC2)C(=O)N[C@@H](CC2CCOCC2)C(=O)N[C@@H](CC(=O)O)C(=O)N[C@@H](C(C)C)C(=O)N[C@@H](Cc2ccc(O)cc2)C(=O)N1)C(=O)N[C@H](C(N)=O)C(C)(C)O [compound 336, Ac-hLeu-Y-C-Tbg-G-Lys(DOTA)-ThpA-D-V-Y-C-5FW-Nle-hydroxyVal-CONH2] (Ac-[hLeu]YC[Tle]GK(DOTA)[Ala(4-THP)]DVYC[Trp(5-F)][Nle][Val(3-OH)]-NH2; disulfide 3-11) |  | 10 to 100 nM
CC(=O)N[C@@H](CCC(C)C)C(=O)N[C@@H](Cc1ccc(O)cc1)C(=O)N[C@H]1CSSC[C@@H](C(=O)N[C@@H](Cc2c[nH]c3ccc(F)cc23)C(=O)N[C@@H](Cc2ccccc2)C(=O)N[C@H](C(=O)N[C@H](CCCCNC(=O)CN2CCN(CC(=O)O)CCN(CC(=O)O)CCN(CC(=O)O)CC2)C(=O)O)[C@@H](C)O)NC(=O)[C@H](Cc2ccc(O)cc2)NC(=O)[C@H](C(C)C)NC(=O)[C@H](CC(=O)O)NC(=O)[C@H](CC2CCOCC2)NC(=O)[C@H](CCCCNC(=O)CCOCCOCCOCCOCCOCCOCCOCCOCCOCCOCCOCCOCCOCCOCCOCCOCCOCCOCCOCCOCCOCCC(=O)O)NC(=O)CNC(=O)[C@H](C(C)(C)C)NC1=O [compound 341, Ac-hLeu-Y-C-Tbg-G-K(PEG21-COOH)-ThpA-D-V-Y-C-5FW-F-Thr-dLys(DOTA)-COOH] (Ac-[hLeu]YC[Tle]GK(X16)[Ala(4-THP)]DVYC[Trp(5-F)]FT[dK](DOTA)-OH; disulfide 3-11) |  | 10 to 100 nM
